Experimental data reported in patent publication US6930130B2, “Citrullimycines, a process for their production and their use as pharmaceuticals” (Aventis Pharma Deutschland GmbH, priority 2000, dated 2005).
pIC50: −log10 of the molar value.

Tested on: human neurotensin receptor proteins expressed in HEK cell membranes
Experiment: SPA [3H] neurotensin receptor binding assay
Settings: displacement of 4 nM [3H]neurotensin, 2 hours, room temperature
Text: The Citrullimycines according to the invention show inhibition in the neurotensin receptor binding assay of human neurotensin receptor proteins expressed in HEK cell membranes.
SPA [^3H] Neurotensin Receptor Binding Assay
Compounds with an affinity for the neurotensin receptor will displace the binding of [3H] neurotensin, which results in a diminished radioactive signal. In the SPA method, receptors immobilized directly on PVT WGA (Wheat Germ Agglutinin) coated SPA beads (Amersham Pharmacia) bind the radiolabelled ligand. The ligand-receptor complex is held in close enough proximity to stimulate emission of light by the bead. Any unbound radioligand is too distant from the bead to transfer energy and therefore will not be detected.
The samples were pre-diluted 1:5 with assay buffer (50 mM Tris-HCl buffer with 1 mM EDTA, 0.2 mM Bacitracin, and 0.1% BSA, pH 7.4) in deep well plates. The final dilution in the assay was 1:20. 96-well isoplates from Wallac were used for the screening. […]
On each plate, four wells without samples were used to determine the total receptor-ligand binding and another four wells with 1 μM (L-α, γ-diaminobutyryl) neurotensin were used to determine the nonspecific binding respectively. Inhibition activities are expressed as: […]

With `CCC(C)CCC(O)CC(=O)OC(CCC(C)C)CC(=O)NC(CCCNC(N)=O)C(=O)OC(CCC(C)CC)CC(=O)OC(CCC(C)CC)CC(=O)O` (stereo not shown) [Citrullimycine A] the pIC50 was 4.80.
